US20210115104A1, “AMYLIN ANALOGUES” (Zealand Pharma A/S, priority 2015, published 2021)
*1 amine or outer side, *2 acyl side, *3 side chain or, on linkers, in order; H or OH if unused. Where a SMILES comes first, the peptide text is derived from it. Bridges are numbered along the chain shown (N, C = ends). [ ]: non-standard residue; d: D form. The star is where a group is joined. C20 diacid = O=C(O)CCCCCCCCCCCCCCCCCCC(=O)*; Pro(4R-NH2) = N[C@H]1CN[C@H](C(=O)O)C1; γGlu = O=C(O)[C@H](CCC(=O)[*:2])N[*:1]; NMeI = CC[C@H](C)[C@H](NC)C(=O)O; Sar = CNCC(=O)O

How the values were obtained:
[1] = Assessment of physical stability (Thioflavin T fibrillation); type: physicochemical; design: key: FND = fibrillation not detected; FD = fibrillation detected; conditions: 1 mg/ml, 40° C., ThT; for Fibrillation pH 4.0 (Ac): 50 mM acetate buffer pH 4.0, 96 hours; for Fibrillation pH 7.0 (His): 50 mM histidine buffer pH 7.0, 96 hours; for Fibrillation pH 7.0 (Phos.): 50 mM phosphate buffer pH 7.0, 96 hours
Protocol: Solutions containing (i) 1 mg/ml of test peptide, 40 μM ThT and 50 mM phosphate (Ph) buffer (pH 7.0), (ii) 1 mg/ml of test peptide, 40 μM ThT and 50 mM histidine (His) buffer (pH 7.0), and (iii) 1 mg/ml of test peptide, 40 μM ThT and 50 mM acetate (Ac) buffer (pH 4.0), were loaded in a 96-well black fluorescence plate (clear bottom) in triplicate. Data were collected at fixed intervals of 10 min, each preceded by 300 s of automixing (agitation), over a period of 96 hours at 40° C. Physical stability, expressed as lag-time of fibril formation (in hours), was defined as the intersection between two linear regressions representing the initial stable phase and the growth phase.

[2] = Assessment of chemical stability (RP-HPLC normalized purity); type: physicochemical; conditions: for Normalized purity after 7 days, 40° C., pH 4: pH 4, 0.2 mg/ml; for Normalized purity after 7 days, 40° C., pH 4 / Normalized purity after 7 days, 40° C., pH 7.5 / Normalized purity after 7 days, 40° C., pH 9 / Normalized purity after 7 days, 40° C., pH 6: Table 1; for Normalized purity after 7 days, 40° C., pH 7.5: pH 7.5, 0.2 mg/ml; for Normalized purity after 7 days, 40° C., pH 9: pH 9, 0.2 mg/ml; for Normalized purity after 7 days, 40° C., pH 6: pH 6, 0.2 mg/ml
Protocol: Samples of each test peptide were dissolved in MilliQ™ water, and the pH of the solution was adjusted to pH 4, pH 6, pH 7.5 or pH 9, respectively, using either HCl or NaOH. The final peptide concentration was 0.2 mg/ml. Samples were placed in glass vials and incubated at 40° C. The samples were analyzed by RP-HPLC on a C8 column with gradient elution using an ammonium formate/water eluent system, or on a C18 column with gradient elution using a trifluoroacetic acid/water eluent system. The area-percentage (area-%) of the main peak after incubation time T=t (relative to time T=0) was determined by UV spectroscopy at 220 nm.
The purity was first determined as follows:
Purity(area-%)=(area of main peak/total area of all peaks)×100.
The purity was then normalized between time points by setting purity at time 0 (T=0) to 100 for each pH value for a given peptide, as follows:
Normalised area-% at time t (T=t)=[area-%(T=t)/area-%(T=0)]×100.
The normalized purity values in Table 1 were determined after 7 days of incubation.
The chemical stability assessment described in Example 6 was repeated for four pairs of compounds, each differing only by the presence or absence of an Asn-Asn (N—N) doublet at positions 21 and 22.

| Fibrillation pH 4.0 (Ac) [1] | Fibrillation pH 7.0 (His) [1] | Fibrillation pH 7.0 (Phos.) [1] | Normalized purity after 7 days, 40° C., pH 4 [2] | Normalized purity after 7 days, 40° C., pH 7.5 [2] | Normalized purity after 7 days, 40° C., pH 9 [2] | Normalized purity after 7 days, 40° C., pH 6 [2] | Normalized purity pH 4 (Table 5) ([2]; pH 4, repeat of Example 6 for pairs with/without Asn-Asn at 21-22) | Normalized purity pH 6 (Table 5) ([2]; pH 6, repeat of Example 6 for pairs with/without Asn-Asn at 21-22) | Normalized purity pH 7.5 (Table 5) ([2]; pH 7.5, repeat of Example 6 for pairs with/without Asn-Asn at 21-22) | Normalized purity pH 9 (Table 5) ([2]; pH 9, repeat of Example 6 for pairs with/without Asn-Asn at 21-22) | Compound |
| --- | --- | --- | --- | --- | --- | --- | --- | --- | --- | --- | --- |
| FND | FD | FND | A (A = >90%) | A (A = >90%) | B (B = 70-90%) |  |  |  |  |  | CC[C@H](C)[C@@H](C(=O)N[C@@H](CC(C)C)C(=O)N[C@@H](CO)C(=O)N[C@@H](CO)C(=O)N[C@H](C(=O)N[C@@H](CCC(=O)O)C(=O)N[C@H](C(=O)NCC(=O)N[C@@H](CO)C(=O)N[C@@H](CCC(=O)O)C(=O)N[C@H](C(=O)N1CCC[C@H]1C(N)=O)[C@@H](C)O)C(C)C)[C@@H](C)O)N(C)C(=O)[C@H](C)NC(=O)CN(C)C(=O)[C@H](Cc1ccccc1)NC(=O)[C@H](CO)NC(=O)[C@H](CO)NC(=O)[C@H](CCCNC(=N)N)NC(=O)[C@H](Cc1c[nH]cn1)NC(=O)[C@H](CC(C)C)NC(=O)[C@H](Cc1ccccc1)NC(=O)[C@H](Cc1c[nH]cn1)NC(=O)[C@H](C)NC(=O)[C@H](CC(C)C)NC(=O)[C@H](CCCNC(=N)N)NC(=O)[C@H](CCC(N)=O)NC(=O)[C@@H](NC(=O)[C@H](C)NC(=O)[C@@H]1CSSC[C@H](NC(=O)[C@H](CCCNC(=N)N)NC(=O)CC[C@H](NC(=O)CCCCCCCCCCCCCCCCCCC(=O)O)C(=O)O)C(=O)N[C@@H](CC(N)=O)C(=O)N[C@@H]([C@@H](C)O)C(=O)N[C@@H](C)C(=O)N[C@@H]([C@@H](C)O)C(=O)N1)[C@@H](C)O [Compound 2, [19CD]-isoGlu-R-C( )-NTAT-C( )-ATQRLAHFLHRSSF-Gly(Me)-A-Ile(Me)-LSSTEVGSETP-NH2] ({C20 diacid-γGlu}-RCNTATCATQRLAHFLHRSSF[Sar]A[NMeI]LSSTEVGSETP-NH2; disulfide 2-7) |
| FND | FD | FND | A (A = >90%) | A (A = >90%) | A (A = >90%) | A (A = >90%) |  |  |  |  | CC[C@H](C)[C@@H](C(=O)N[C@@H](CC(C)C)C(=O)N[C@@H](CO)C(=O)N[C@@H](CO)C(=O)N[C@H](C(=O)N[C@@H](CCC(=O)O)C(=O)N[C@H](C(=O)NCC(=O)N[C@@H](CO)C(=O)N[C@@H](CCC(=O)O)C(=O)N[C@H](C(=O)N1CCC[C@H]1C(N)=O)[C@@H](C)O)C(C)C)[C@@H](C)O)N(C)C(=O)[C@H](C)NC(=O)CN(C)C(=O)[C@H](Cc1ccccc1)NC(=O)[C@H](CCCNC(=N)N)NC(=O)[C@H](Cc1c[nH]cn1)NC(=O)[C@H](CC(C)C)NC(=O)[C@H](Cc1ccccc1)NC(=O)[C@H](Cc1c[nH]cn1)NC(=O)[C@H](C)NC(=O)[C@H](CC(C)C)NC(=O)[C@H](CCCNC(=N)N)NC(=O)[C@H](CCC(N)=O)NC(=O)[C@@H](NC(=O)[C@H](C)NC(=O)[C@@H]1CSSC[C@H](NC(=O)[C@H](CCCNC(=N)N)NC(=O)CC[C@H](NC(=O)CCCCCCCCCCCCCCCCCCC(=O)O)C(=O)O)C(=O)N[C@@H](CC(N)=O)C(=O)N[C@@H]([C@@H](C)O)C(=O)N[C@@H](C)C(=O)N[C@@H]([C@@H](C)O)C(=O)N1)[C@@H](C)O [Compound 14, [19CD]-isoGlu-R-C( )-NTAT-C( )-ATQRLAHFLHRF-Gly(Me)-A-Ile(Me)-LSSTEVGSETP-NH2] ({C20 diacid-γGlu}-RCNTATCATQRLAHFLHRF[Sar]A[NMeI]LSSTEVGSETP-NH2; disulfide 2-7) |
| FND | FD | FD | A (A = >90%) | B (B = 70-90%) | B (B = 70-90%) | A (A = >90%) | A (A = >90%) | A (A = >90%) | B (B = 70-90%) | B (B = 70-90%) | CC[C@H](C)[C@H](NC(=O)[C@@H]1CCCN1C(=O)CNC(=O)[C@H](Cc1ccccc1)NC(=O)[C@H](CC(N)=O)NC(=O)[C@H](CC(N)=O)NC(=O)[C@H](CO)NC(=O)[C@H](CO)NC(=O)[C@H](Cc1c[nH]cn1)NC(=O)[C@H](Cc1c[nH]cn1)NC(=O)[C@H](CC(C)C)NC(=O)[C@H](Cc1ccccc1)NC(=O)[C@H](CCC(=O)O)NC(=O)[C@H](C)NC(=O)[C@H](CC(C)C)NC(=O)[C@H](CCCNC(=N)N)NC(=O)[C@H](CCC(N)=O)NC(=O)[C@@H](NC(=O)[C@H](C)NC(=O)[C@@H]1CSSC[C@H](NC(=O)[C@H](CCCNC(=N)N)NC(=O)CC[C@H](NC(=O)CCCCCCCCCCCCCCCCCCC(=O)O)C(=O)O)C(=O)N[C@@H](CC(N)=O)C(=O)N[C@@H]([C@@H](C)O)C(=O)N[C@@H](C)C(=O)N[C@@H]([C@@H](C)O)C(=O)N1)[C@@H](C)O)C(=O)N[C@@H](CC(C)C)C(=O)N1CCC[C@H]1C(=O)N1CCC[C@H]1C(=O)N[C@H](C(=O)N[C@@H](CC(N)=O)C(=O)N[C@H](C(=O)NCC(=O)N[C@@H](CO)C(=O)N[C@@H](CC(N)=O)C(=O)N[C@H](C(=O)N1CCC[C@H]1C(N)=O)[C@@H](C)O)C(C)C)[C@@H](C)O [NN96, N-α-[(S)-4-carboxy-4-(19-carboxynonadecanoylamino)butyryl]-[Arg1, Glu14, His17, Pro37]-pramlintide-NH2, reference compound] ({C20 diacid-γGlu}-RCNTATCATQRLAEFLHHSSNNFGPILPPTNVGSNTP-NH2; disulfide 2-7) |

| Compound | Fibrillation pH 4.0 (Ac) [1] | Fibrillation pH 7.0 (His) [1] | Fibrillation pH 7.0 (Phos.) [1] | Normalized purity after 7 days, 40° C., pH 4 [2] | Normalized purity after 7 days, 40° C., pH 7.5 [2] | Normalized purity after 7 days, 40° C., pH 9 [2] | Normalized purity after 7 days, 40° C., pH 6 [2] | Normalized purity pH 4 (Table 5) ([2]; pH 4, repeat of Example 6 for pairs with/without Asn-Asn at 21-22) | Normalized purity pH 6 (Table 5) ([2]; pH 6, repeat of Example 6 for pairs with/without Asn-Asn at 21-22) | Normalized purity pH 7.5 (Table 5) ([2]; pH 7.5, repeat of Example 6 for pairs with/without Asn-Asn at 21-22) | Normalized purity pH 9 (Table 5) ([2]; pH 9, repeat of Example 6 for pairs with/without Asn-Asn at 21-22) |
| --- | --- | --- | --- | --- | --- | --- | --- | --- | --- | --- | --- |
| CC[C@H](C)[C@@H](C(=O)N[C@@H](CC(C)C)C(=O)N[C@@H](CO)C(=O)N[C@@H](CO)C(=O)N[C@H](C(=O)N[C@@H](CC(N)=O)C(=O)N[C@H](C(=O)NCC(=O)N[C@@H](CO)C(=O)N[C@@H](CC(N)=O)C(=O)N[C@H](C(=O)N1C[C@H](N)C[C@H]1C(N)=O)[C@@H](C)O)C(C)C)[C@@H](C)O)N(C)C(=O)[C@H](C)NC(=O)CN(C)C(=O)[C@H](Cc1ccccc1)NC(=O)[C@H](CC(N)=O)NC(=O)[C@H](CC(N)=O)NC(=O)[C@H](CO)NC(=O)[C@H](CO)NC(=O)[C@H](CCCNC(=N)N)NC(=O)[C@H](Cc1c[nH]cn1)NC(=O)[C@H](CC(C)C)NC(=O)[C@H](Cc1ccccc1)NC(=O)[C@H](Cc1c[nH]cn1)NC(=O)[C@H](C)NC(=O)[C@H](CC(C)C)NC(=O)[C@H](CCCNC(=N)N)NC(=O)[C@H](CCC(N)=O)NC(=O)[C@@H](NC(=O)[C@H](C)NC(=O)[C@@H]1CSSC[C@H](NC(=O)[C@H](CCCNC(=N)N)NC(=O)CC[C@H](NC(=O)CCCCCCCCCCCCCCCCCCC(=O)O)C(=O)O)C(=O)N[C@@H](CC(N)=O)C(=O)N[C@@H]([C@@H](C)O)C(=O)N[C@@H](C)C(=O)N[C@@H]([C@@H](C)O)C(=O)N1)[C@@H](C)O [Compound 5, [19CD]-isoGlu-R-C( )-NTAT-C( )-ATQRLAHFLHRSSNNF-Gly(Me)-A-Ile(Me)-LSSINVGSNT-Apr-NH2] ({C20 diacid-γGlu}-RCNTATCATQRLAHFLHRSSNNF[Sar]A[NMeI]LSSTNVGSNT[Pro(4R-NH2)]-NH2; disulfide 2-7) | FND | FND | FND | B (B = 70-90%) | C (C = <70%) | C (C = <70%) |  |  |  |  |  |
